In article PMC9316313, “Biochemical Properties of Atranorin-Induced Behavioral and Systematic Changes of Laboratory Rats” (Life, 2022):

Target: T1, human serum albumin (HSA) (Homo sapiens, UniProt P02768)
T1 construct: gene ALB; Albumin from human serum (A1887, Sigma Aldrich)
Assay: intrinsic fluorescence quenching (Stern-Volmer, binding constant KB), synchronous and 3D fluorescence
Details: read-out: intrinsic fluorescence quenching (Stern-Volmer, binding constant KB), synchronou (converted)

T1 sequence (P02768 25-609): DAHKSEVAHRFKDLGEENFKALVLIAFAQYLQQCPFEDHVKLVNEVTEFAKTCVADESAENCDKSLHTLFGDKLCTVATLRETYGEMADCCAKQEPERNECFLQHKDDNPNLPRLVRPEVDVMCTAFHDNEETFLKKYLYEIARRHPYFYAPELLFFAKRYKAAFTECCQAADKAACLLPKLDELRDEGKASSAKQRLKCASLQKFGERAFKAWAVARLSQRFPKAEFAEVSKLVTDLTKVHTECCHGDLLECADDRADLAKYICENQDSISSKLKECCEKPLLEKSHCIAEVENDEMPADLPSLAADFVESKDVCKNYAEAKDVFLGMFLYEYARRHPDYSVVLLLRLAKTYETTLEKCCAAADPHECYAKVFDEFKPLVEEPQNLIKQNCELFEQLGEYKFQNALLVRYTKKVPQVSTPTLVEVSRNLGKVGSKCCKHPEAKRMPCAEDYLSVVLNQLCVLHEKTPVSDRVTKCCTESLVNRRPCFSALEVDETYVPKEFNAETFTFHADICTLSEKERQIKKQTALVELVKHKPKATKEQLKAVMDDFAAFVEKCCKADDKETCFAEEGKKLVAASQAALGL

COC(=O)c1c(C)cc(OC(=O)c2c(C)cc(O)c(C=O)c2O)c(C)c1O [ATR, Atranorin]
Kd: 235 nM
